Assays:
VIM-1 = VIM-1 (Pseudomonas aeruginosa (strain ATCC 15692 / DSM 22644 / CIP 104116 / JCM 14847 / LMG 12228 / 1C / PRS 101 / PAO1), UniProt A0A0F7KYQ8); assay: biochemical; settings: CCF2-FA substrate, 2 hours at 25° C
Method in brief: (§1)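 Semi-log dose-response curves, fitted with a 4-parameter model, gave IC50s. The underlying signal was CCF2-FA fluorescence following 2 hours at 25° C with enzyme, substrate and inhibitor combined.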

NDM-1 = NDM-1 (Klebsiella pneumoniae, UniProt C7C422); assay: biochemical; assay type: biochemical; settings: CCF2-FA substrate, 2 hours at 25° C; read-out: NDM-1 IC50
Sequence of NDM-1 (C7C422 whole entry, looked up, species assumed): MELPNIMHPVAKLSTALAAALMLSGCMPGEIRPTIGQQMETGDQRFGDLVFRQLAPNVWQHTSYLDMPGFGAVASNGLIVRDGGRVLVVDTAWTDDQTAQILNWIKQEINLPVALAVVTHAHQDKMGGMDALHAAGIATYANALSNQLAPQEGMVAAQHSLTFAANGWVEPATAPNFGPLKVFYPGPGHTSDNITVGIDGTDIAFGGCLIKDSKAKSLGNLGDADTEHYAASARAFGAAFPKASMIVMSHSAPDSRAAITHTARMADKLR
Method in brief: as §1

IMP-1 = IMP-1 (Serratia marcescens, UniProt P52699); assay: biochemical; assay type: biochemical; settings: CCF2-FA substrate, 2 hours at 25° C; read-out: IMP-1 IC50
Sequence of IMP-1 (P52699 whole entry, looked up, species assumed): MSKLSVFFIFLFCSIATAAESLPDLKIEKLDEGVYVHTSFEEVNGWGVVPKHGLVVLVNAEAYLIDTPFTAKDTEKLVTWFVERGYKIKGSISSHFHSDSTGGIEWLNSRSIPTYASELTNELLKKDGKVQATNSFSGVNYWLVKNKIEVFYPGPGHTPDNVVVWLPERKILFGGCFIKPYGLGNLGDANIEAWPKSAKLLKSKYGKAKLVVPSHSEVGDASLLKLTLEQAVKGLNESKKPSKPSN
Method in brief: as §1

[1] = system: P. aeruginosa expressing IMP-1, efflux+ (MB9798); assay type: cell-based, Pseudomonas aeruginosa; settings: for P. aeruginosa expressing IMP-1, efflux+ (MB9798) MITC95: imipenem at 2 μg/mL, in the presence of a class A, C, D serine β-lactamase inhibitor closely related to relebactam; for Efflux ratio: ratio MITC95 PA_9798/MITC95 PA_9799
Text: (§2) The strain background is Pseudomonas aeruginosa PAO1.

[2] = system: P. aeruginosa expressing IMP-1, efflux− (MB9799); assay: Efflux: concentration of MBL inhibitor which restores susceptibility to imipenem; assay type: cell-based, Pseudomonas aeruginosa; settings: imipenem at 2 μg/mL, in the presence of a class A, C, D serine β-lactamase inhibitor closely related to relebactam
Text: as §2

[3] = system: Serratia marcescens expressing IMP-1 (CL5741); assay type: cell-based; settings: with imipenem 1 μg/ml, 95% inhibition of bacterial growth; for Serratia marcescens MITC95: IMP-1 (CL5741)
Method in brief: (§3)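 Restoration of imipenem susceptibility (1 μg/ml imipenem) was judged by absorbance after 22–24 h at 35° C. Test compound was added to bacteria suspended 1:100 in 1.1× CAMHB from overnight blood-agar cultures.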

[4] = system: Klebsiella pneumoniae expressing VIM-1 (IHMA599644); assay type: cell-based; settings: with imipenem 1 μg/ml, 95% inhibition of bacterial growth; for Klebsiella pneumoniae MITC95: VIM-1 (IHMA599644)
Method in brief: as §3

[5] = system: Escherichia coli expressing NDM-1 (CLB30005, CLB30016); assay type: cell-based; settings: with imipenem 1 μg/ml, 95% inhibition of bacterial growth; for Escherichia coli MITC95: NDM-1 (CLB30016)
Method in brief: as §3

Row | SMILES | IC50 (VIM-1) [nM] | IC50 (NDM-1) [nM] | IC50 (IMP-1) [nM] | P. aeruginosa expressing IMP-1, efflux+ (MB9798) MITC95 [1] [µM] | Efflux ratio [1] | P. aeruginosa expressing IMP-1, efflux− (MB9799) MITC95 [2] [µM] | Serratia marcescens expressing IMP-1 (CL5741) MITC95 [3] [µM] | Klebsiella pneumoniae expressing VIM-1 (IHMA599644) MITC95 [4] [µM] | Escherichia coli expressing NDM-1 (CLB30016) MITC95 [5] [µM] | Serratia marcescens MITC95 [3] [µM] | Klebsiella pneumoniae MITC95 [4] [µM] | Escherichia coli MITC95 [5] [µM]
1 | NS(=O)(=O)c1c(Sc2ccncc2)ccc(-c2ccc(C3CCNCC3)cc2)c1-c1nn[nH]n1 [Example 242, 4′-(Piperidin-4-yl)-4-(pyridin-4-ylthio)-2-(2H-tetrazol-5-yl)-[1,1′-biphenyl]-3-sulfonamide] | 7.47 | 4.01 | 3.34 | 50 | 31.99 | 1.563 | 6.25 | 50 | 12.5 | – | – | –
2 | NS(=O)(=O)c1c(SC2CNC2)ccc(-c2ccc(NS(=O)(=O)C3CC3)cc2)c1-c1nn[nH]n1 [Example 243, 4-(Azetidin-3-ylthio)-4′-(cyclopropanesulfonamido)-2-(2H-tetrazol-5-yl)-[1,1′-biphenyl]-3-sulfonamide] | 9.86 | 5.88 | 11.3 | 100 | 127.99 | 0.7813 | 3.125 | 12.5 | 3.125 | – | – | –
3 | NS(=O)(=O)c1c(S(=O)(=O)C2CNC2)ccc(-c2ccc(NS(=O)(=O)C3CC3)cc2)c1-c1nn[nH]n1 [Example 244, 4-(Azetidin-3-ylsulfonyl)-4′-(cyclopropanesulfonamido)-2-(2H-tetrazol-5-yl)-[1,1′-biphenyl]-3-sulfonamide] | 0.112 | 0.156 | 0.144 | 6.25 | 4.00 | 1.563 | 3.125 | 6.25 | 3.125 | – | – | –
4 | NS(=O)(=O)c1c(S(=O)(=O)C2CN(C(=O)NC3CC3)C2)ccc(-c2ccc(NS(=O)(=O)C3CC3)cc2)c1-c1nn[nH]n1 [Example 245, 3-((4′-(Cyclopropanesulfonamido)-3-sulfamoyl-2-(2H-tetrazol-5-yl)-[1,1′-biphenyl]-4-yl)sulfonyl)-N-cyclopropylazetidine-1-carboxamide] | 0.218 | 0.386 | 0.126 | 50 | 8.00 | 6.25 | – | – | – | 25 | 50 | 25
5 | NS(=O)(=O)c1cccc(-c2ccc(S(=O)(=O)C3CNC3)c(S(N)(=O)=O)c2-c2nn[nH]n2)c1 [Example 247, 4-(Azetidin-3-ylsulfonyl)-2-(2H-tetrazol-5-yl)-[1,1′-biphenyl]-3,3′-disulfonamide] | 1.83 | 2.01 | 3.24 | 25 | 15.99 | 1.563 | – | – | – | 1.563 | 3.125 | 1.563
6 | Nc1ncc(-c2ccc(S(=O)(=O)C3CNC3)c(S(N)(=O)=O)c2-c2nn[nH]n2)c2cccnc12 [Example 248, 3-(8-Amino-1,7-naphthyridin-5-yl)-6-(azetidin-3-ylsulfonyl)-2-(2H-tetrazol-5-yl)benzenesulfonamide] | 0.556 | 0.566 | 2.09 | 6.25 | 4.00 | 1.563 | – | – | – | 1.563 | 3.125 | 3.125
7 | Nc1nc2c(-c3ccc(S(=O)(=O)c4cccc(C(F)(F)F)c4)c(S(N)(=O)=O)c3-c3nn[nH]n3)cccc2s1 [Example 250, 3-(2-Aminobenzo[d]thiazol-4-yl)-2-(2H-tetrazol-5-yl)-6-((3-(trifluoromethyl)phenyl)sulfonyl)benzenesulfonamide] | 0.681 | 0.245 | 0.82 | 200 | 64.00 | 3.125 | – | – | – | 6.25 | 100 | 6.25
8 | Nc1nc2c(-c3ccc(S(=O)(=O)C4CNC4)c(S(N)(=O)=O)c3-c3nn[nH]n3)ccc(F)c2[nH]1 [Example 251, 3-(2-Amino-7-fluoro-1H-benzo[d]imidazol-4-yl)-6-(azetidin-3-ylsulfonyl)-2-(2H-tetrazol-5-yl)benzenesulfonamide] | 0.251 | 0.0727 | 0.748 | 1.563 | 2.00 | 0.7813 | – | – | – | 1.563 | 1.563 | 0.3906
9 | COC(=O)c1nc2c(-c3ccc(S(=O)(=O)C4CNC4)c(S(N)(=O)=O)c3-c3nn[nH]n3)cccc2[nH]1 [Example 252, Methyl 4-(4-(azetidin-3-ylsulfonyl)-3-sulfamoyl-2-(2H-tetrazol-5-yl)phenyl)-1H-benzo[d]imidazole-2-carboxylate] | 0.209 | 0.0464 | 0.423 | 3.125 | 1.00 | 3.125 | – | – | – | 3.125 | 6.25 | 1.563
10 | NS(=O)(=O)c1c(S(=O)(=O)C2CNC2)ccc(-c2cccc3[nH]c(C(=O)O)nc23)c1-c1nn[nH]n1 [Example 253, 4-(4-(Azetidin-3-ylsulfonyl)-3-sulfamoyl-2-(2H-tetrazol-5-yl)phenyl)-1H-benzo[d]imidazole-2-carboxylic Acid] | 0.294 | 0.173 | 0.664 | 1.563 | 1.00 | 1.563 | – | – | – | 1.563 | 3.125 | 1.563
11 | NC(=O)c1nc2c(-c3ccc(S(=O)(=O)C4CNC4)c(S(N)(=O)=O)c3-c3nn[nH]n3)cccc2[nH]1 [Example 254, 4-(4-(Azetidin-3-ylsulfonyl)-3-sulfamoyl-2-(2H-tetrazol-5-yl)phenyl)-1H-benzo[d]imidazole-2-carboxamide] | 0.218 | 0.0825 | 0.748 | 3.125 | 2.00 | 1.563 | – | – | – | 3.125 | 6.25 | 1.563
12 | CNC(=O)c1nc2c(-c3ccc(S(=O)(=O)C4CNC4)c(S(N)(=O)=O)c3-c3nn[nH]n3)cccc2[nH]1 [Example 255, 4-(4-(Azetidin-3-ylsulfonyl)-3-sulfamoyl-2-(2H-tetrazol-5-yl)phenyl)-N-methyl-1H-benzo[d]imidazole-2-carboxamide] | 0.419 | 0.151 | 1.66 | 12.5 | 4.00 | 3.125 | – | – | – | 6.25 | 12.5 | 6.25
13 | COC(=O)CNC(=O)c1nc2c(-c3ccc(S(=O)(=O)C4CNC4)c(S(N)(=O)=O)c3-c3nn[nH]n3)cccc2[nH]1 [Example 256, Methyl (4-(4-(azetidin-3-ylsulfonyl)-3-sulfamoyl-2-(2H-tetrazol-5-yl)phenyl)-1H-benzo[d]imidazole-2-carbonyl)glycinate] | 0.35 | 0.108 | 0.999 | 6.25 | 1.00 | 6.25 | – | – | – | 6.25 | 12.5 | 6.25
